Test results taken from article PMC5620575 (Pharmaceutics, 2017).
In brackets after ≈: the same amount, converted by molar mass.

Legend:
[1] = blood to plasma partition; type: in vitro ADME; conditions: heparinized whole blood, rabbit blood, 37 °C, n = 3
Protocol: The spiked blood samples were kept at 37 °C in a shaking water bath for one hour, and plasma was then obtained by centrifugation at 37 °C. Aliquots of about 400 μL, of each plasma sample were kept frozen at −80 °C until analysis. The blood to plasma distribution ratio was determined from the ratio of the nominal total whole blood concentration and the measured plasma concentration for each compound.

[2] = pharmacokinetics after single IV administration; type: in vivo; conditions: rabbit, 5 mg/kg; for AUC / half-life / k el: plasma; for AUC / half-life / CLT: n = 4; for k el: n = 4, read-out: Elimination rate constant (converted)
From the text: IV administration of the compounds under investigation, and collection of blood samples were through a catheter inserted in the marginal ear vein of the rabbit (I-Cath, CharterMed Inc., Winston-Salem, NC, USA). After IV drug administration, blood was withdrawn to fill the cannula and then reinjected three times before obtaining any blood samples to prevent contamination. Furthermore, the cannula was flushed with heparinized saline to prevent blockage of the cannula and prevent sample to sample contamination.
Urine samples were collected utilizing Foly Catheter (size French 8). The catheter was inserted into the rabbit bladder using a lubricant. When urine is collected over a specific time interval, the bladder was irrigated with 3 × 15 mL normal saline at 3 min, 6 min, and 10 min before the end of the urine collection interval [15, 16]. Irrigation of the bladder is necessary to obtain the majority of the drug eliminated in urine during the collection interval.
Three groups of rabbits (n = 4, each) received 5 mg/kg dose of each compound via the IV catheter. This dose was selected based on the results of a preliminary experiment to achieve measurable plasma concentrations for 8 h using our analytical methods, to ensure good characterization of the plasma concentration-time profile. Accurately weighed Lzd and PH027 powder were dissolved first in 600 μL of ethanol using an ultrasound water bath. The resulting solution was then diluted with normal saline to produce the solutions used for IV administration, which consist of the dose of the compound dissolved in 3 mL of 20% ethanol in normal saline. PH051 required the use of slightly larger volume of ethanol to achieve complete dissolution. So, 900 μL of ethanol were used, and the resulting solution used for IV administration consisted of PH051 dose dissolved in 3 mL of 30% ethanol in normal saline. The difference in the volume of ethanol administered, 300 μL, which was necessary to ensure complete dissolution of PH051, should not have a significant effect on the pharmacokinetic behavior of PH051. The solutions were administered slowly over a period of […] administration, serial blood and urine samples were obtained over a period of 8 h. Plasma was obtained from blood by centrifugation, and samples were kept at −80 °C until analysis. The volumes of urine samples were determined and recorded, and aliquots were kept at −80 °C until analysis.
(§1) The pharmacokinetic parameters for each of the three compounds including half-life (t1/2), volume of distribution (Vd), elimination rate constant (k), area under the plasma concentration-time curve (AUC), total body clearance (CLT), renal clearance (CLR), and oral bioavailability (F) were determined using the general pharmacokinetic parameter calculation procedures using PKPD tools for Microsoft Excel. The obtained pharmacokinetic parameters for each compound were compared using Statistical Package of Social Sciences (SPSS) to determine the difference in the pharmacokinetic behavior for the three compounds.

[3] = tested on: Moraxella catarrhalis; set-up: method as in PMID 12467705, PMID 15911326, PMID 17140706, PMID 19376613, PMID 23811087; conditions: cited from earlier work
[4] = tested on: Escherichia coli; set-up: method as in PMID 12467705, PMID 15911326, PMID 17140706, PMID 19376613, PMID 23811087; conditions: cited from earlier work
[5] = tested on: Staphylococcus aureus and Enterococci spp; set-up: method as in PMID 12467705, PMID 15911326, PMID 17140706, PMID 19376613, PMID 23811087; conditions: clinical isolates; cited from earlier work
[6] = biopharmaceutical classification system (BCS) class; conditions: assigned from lower aqueous solubility than Lzd and calculated Log P less than 1.7
[7] = pharmacokinetics after single oral administration as suspension; type: in vivo; conditions: New Zealand White, plasma, rabbit, 20 mg/kg, n = 4
Protocol: The pediatric feeding tube was pushed until it reached the stomach.
Three groups of rabbits (n = 4, each) received 20 mg/kg oral dose of each compound. […] Accurately weighted amounts of each compound were dissolved/suspended in 20 mL of warm normal saline using an ultrasound water bath. […] The solutions/suspensions of the three compounds were administered orally to the rabbits using a pediatric feeding tubes. After oral administration of each compound, serial blood samples were obtained through the IV catheter, over a period of 10 h after administration. Plasma was obtained from blood by centrifugation, and samples were kept at −80 °C until analysis.
as §1

[8] = pharmacokinetics after single oral administration as microemulsion; type: in vivo; conditions: plasma, rabbit, 20 mg/kg, n = 3; for AUC / Cmax / Tmax: New Zealand White; for bioavailability: White New Zealand
Protocol: Three groups of rabbits (n = 3, each) received 20 mg/kg oral dose of each compound in the form of microemulsion through a pediatric feeding tube. After administration, serial blood samples were obtained through the IV catheter, over a period of 10 h. Plasma was obtained from blood by centrifugation, and samples were kept at −80 °C until analysis.
as §1

[9] = plasma protein binding (ultrafiltration); type: in vitro ADME; conditions: for fraction unbound at 1 h, 250 μg/L / fraction unbound at 1 h, 1000 μg/L / fraction unbound at 1 h: rabbit, plasma; for fraction unbound at 1 h, 250 μg/L / fraction unbound at 1 h, 1000 μg/L: n = 3, read-out: Plasma protein binding (% bound) (converted)
Protocol: The remaining volume of the plasma samples obtained by centrifugation in the blood to plasma partition experiment, about 600 μL, was immediately placed in disposable ultrafiltration devices (Centrifree®, EMD Millipore Corp., Billerica, MA, USA), and centrifuged in a temperature controlled centrifuge at 37 °C. The ultrafiltrate collected in the ultrafiltration device cup was stored at −20 °C until analysis. The plasma protein binding for the three compounds in rabbit plasma was determined in triplicates at two different concentrations. The total (free + bound) plasma concentration is the concentration in the plasma samples obtained by centrifugation in the blood to plasma partition experiment, while the free (unbound) concentration is the concentration in the ultrafiltrate. The percentage bound was calculated from the free concentration and the corresponding total concentration according to Equation (1). (1) % Bound = Total concentration−Free concentration/Total concentration × 100

blood plasma ratio at 1 h, 250 μg/L [1]	blood plasma ratio at 1 h, 1000 μg/L [1]	AUC ([2]; White New Zealand)	half-life ([2]; White New Zealand)	k el ([2]; White New Zealand)	CLT [2]	BCS class [6]	AUC [7]	Cmax [7]	Tmax [7]	bioavailability [7]	AUC [8]	Cmax [8]	Tmax [8]	bioavailability [8]	fraction unbound at 1 h, 250 μg/L [9]	fraction unbound at 1 h, 1000 μg/L [9]	Structure (SMILES)	MIC [3]	MIC [4]	MIC [5]	further results
0.96 ± 0.032	1.01 ± 0.021	5670 ± 933 ng·h/mL	1.15 ± 0.202 h	0.000168 s⁻¹	14.7 ± 3.83 mL/min/kg	Class IV	5010 ± 2430 ng·h/mL	1620 ± 820 ng/mL	1 h	22.1%	16600 ng·h/mL	2870 ± 392 ng/mL	2 h	72.9%	0.613	0.622	O=C1O[C@@H](Cn2ccnn2)CN1c1ccc(N2CCOCC2)c(F)c1 [PH027]	> 16.0 µg/mL	> 64 µg/mL	0.5 to 1.0 µg/mL	CL renal ([2]; White New Zealand, urine and plasma, from renal excretion rate and plasma drug concentration, read-out: Renal clearance (converted)): 0.0633 mL/min/kg; fraction unbound at 1 h ([9]; over both concentrations): 0.62 to 0.63
0.772 ± 0.022	0.833 ± 0.015	1950 ± 986 ng·h/mL	2.92 ± 0.768 h	6.6e-05 s⁻¹	42.73 ± 20.2 mL/min/kg	Class IV	369 ± 378 ng·h/mL	69.7 ± 14.8 ng/mL	1 h	4.73%	1080 ± 426 ng·h/mL	731 ± 412 ng/mL	0.5 h	13.9%	0.089	0.091 ± 0.0019	O=C1O[C@@H](Cn2ccnn2)CN1c1ccc(N2CCN(C(=O)C(F)(F)F)CC2)c(F)c1 [PH051]	8.0 µg/mL (≈ 18.1 µM)	> 64 µg/mL	0.25 to 0.5 µg/mL	Fraction excreted unchanged in urine ([2]; ratio of renal clearance to total body clearance): only trace amounts; plasma protein binding ([9]; rabbit plasma, over both concentrations): 91%; fraction unbound at 1 h ([9]; over both concentrations): 0.09 to 0.1
